Several values for one entry are separate records, joined by “and”; a condition that tells them apart may be missing. Equal values may be shown once. Read-outs that look alike come from different tables or passages of the source.
Columns and labels:
[1] = test system: murine leukemia (L1210 or P388), murine solid tumor, human solid tumor and low malignancy fibroblast (LML) cells; details: for Differential in Zone Units, Corbett Assay: μg/disk as for E3; for Type of Cytotoxicity, Corbett Assay: μg/disk: 1 12.5, 2 25, 3 25, 4 20, 5 2.9, 6 250, 8 30, 5-FU 2.5, VP-16 5, taxol 0.2, ^c selective against drug-sensitive and drug-resistant cell lines, ^d drug-sensitive cell lines only
[2] = test system: SKOV3 (human ovarian carcinoma) cell line; assay: Cytotoxicity against SKOV3 cell line; details: Table 2
[3] = test system: LoVo (human colon-carcinoma) cell line; assay: Cytotoxicity against LoVo cell line; type: cell-based
[4] = test system: KB (human nasopharyngeal carcinoma) cell line; assay: Cytotoxicity against KB cell line; type: cell-based
[5] = test system: Panc 03 (pancreatic ductal adenocarcinoma #03, P03); details: SC P03
Method: (§1) Gross log kill is defined as T-C/3.2 Td where T is the median time in days for the tumors of the treated group to reach 750 mg, C is the median time in days for the tumors of the control group to reach 750 mg, and Td is the tumor volume doubling time.

[6] = test system: Colon 51 (colon adenocarcinoma #51); assay: In vivo activity, SC Colon 51 tumor; details: Exp # 1900, 9 inj. IV, 67.5 mg/kg TD
Method: as §1

[7] = test system: murine and human tumors implanted in mice
Method: as §1

[8] = test system: Mam 16/C (mammary #16/C); assay: In vivo activity, SC Mam 16/C tumor; details: Exp # 1885, 7 inj. IV, 21.3 mg/kg TD
Method: as §1

[9] = test system: Colon 38 (colon adenocarcinoma #38); details: SC C38
Method: as §1

[10] = Exp # 1843, 4 inj. IV, 28/5 mg/kg TD
[11] = Exp # 1825, 11 inj. IV, 106 mg/kg TD
[12] = Exp # 1769, 15 inj. IV, 45 mg/kg TD
[13] = Exp # 1887B, 6 inj. IV, 30 mg/kg TD
[14] = Exp # 1878, 9 inj. IV, 82 mg/kg TD
[15] = Exp # 1813, 9 inj. IV, 27 mg/kg TD
[16] = Exp # 1843, 7 inj. IV, 23 mg/kg TD

COc1ccc(C[C@H]2NC(=O)/C=C/C[C@@H]([C@H](C)[C@H]3O[C@@H]3c3ccccc3)OC(=O)[C@H](CC(C)C)OC(=O)[C@H](C)CNC2=O)cc1 [Cryptophycin 2]
Differential in Zone Units, Corbett Assay [1]: > 400 Zone Units | Type of Cytotoxicity, Corbett Assay [1]: E/T | SKOV3 IC50 [2]: 0.18 ng/mL | LoVo IC50 ([3]; Table 1): 0.0002 ng/mL | LoVo IC50 ([3]; Table 2): 0.021 ng/mL

COc1ccc(C[C@H]2NC(=O)/C=C/C[C@@H]([C@H](C)/C=C/c3ccccc3)OC(=O)[C@H](CC(C)C)OC(=O)[C@H](C)CNC2=O)cc1Cl [Cryptophycin 3]
Differential in Zone Units, Corbett Assay [1]: > 400 Zone Units | Type of Cytotoxicity, Corbett Assay [1]: E/T | SKOV3 IC50 [2]: 2.8 ng/mL | LoVo IC50 ([3]; Table 1): 0.5 ng/mL | LoVo IC50 ([3]; Table 2): 0.6 ng/mL | KB IC50 ([4]; Table 1): 0.3 ng/mL | % Body Wt. Loss at Nadir [5, 10]: -9% | Cures [5, 10]: 0/5 | Log Kill [5, 10]: < 1 | T/C [5, 10]: 54%

COc1ccc(C[C@H]2NC(=O)/C=C/C[C@@H]([C@H](C)/C=C/c3ccccc3)OC(=O)[C@H](CC(C)C)OC(=O)[C@H](C)CNC2=O)cc1 [Cryptophycin 4]
Differential in Zone Units, Corbett Assay [1]: > 400 Zone Units | Type of Cytotoxicity, Corbett Assay [1]: E/T | SKOV3 IC50 [2]: 21 ng/mL | LoVo IC50 ([3]; Table 2): 2.5 ng/mL

COC(=O)[C@H](C)CNC(=O)[C@@H](Cc1ccc(OC)c(Cl)c1)NC(=O)/C=C/C[C@@H]1O[C@@H](c2ccccc2)[C@H](O)[C@H]1C [Cryptophycin 6]
LoVo IC50 ([3]; Table 1): ≥ 100 ng/mL | KB IC50 ([4]; Table 1): ≥ 100 ng/mL

COc1ccc(CC(NC(=O)C=CCC2OC(c3ccccc3)C(O)C2C)C(=O)O)cc1Cl (stereo not shown) [Cryptophycin 7]
LoVo IC50 ([3]; Table 1): ≥ 480 ng/mL | KB IC50 ([4]; Table 1): ≥ 750 ng/mL

COc1ccc(C[C@H]2NC(=O)/C=C/C[C@@H]([C@H](C)[C@@H](O)[C@@H](Cl)c3ccccc3)OC(=O)[C@H](CC(C)C)OC(=O)[C@H](C)CNC2=O)cc1Cl [Cryptophycin 8]
% Body Wt. Loss at Nadir [6]: -1% | Log Kill [6]: 1.8 | T/C [6]: 7% | tumor burden T/C ([7]; all of the tumors tested to date): < 10% | lethal toxicity observed during testing ([7]; in vivo testing): attributed to leucopenia | gross log kill activity ratings ([7]; tumors implanted in mice): +++ to ++++ | % Body Wt. Loss at Nadir [8]: -4.5% | Cures [8]: 0/5 | Log Kill [8]: 2.5 | T/C [8]: 6% | Differential in Zone Units, Corbett Assay [1]: > 500 Zone Units | Type of Cytotoxicity, Corbett Assay [1]: E/T | SKOV3 IC50 [2]: 0.15 ng/mL | LoVo IC50 ([3]; Table 1): 0.01 ng/mL | LoVo IC50 ([3]; Table 2): 0.0022 ng/mL | KB IC50 ([4]; Table 1): 0.0002 ng/mL | KB IC50 ([4]; Table 2): 0.01 ng/mL | % Body Wt. Loss at Nadir [5, 11]: -6% | Cures [5, 11]: 0/5 | Log Kill [5, 11]: 4.6 | T/C [5, 11]: 4% | % Body Wt. Loss at Nadir [9, 12]: -2% | Cures [9, 12]: 0/5 | Cures [9, 13]: 1/5 | Log Kill [9, 13]: 2.8 | T/C [9, 13]: 0%

COc1ccc(CC2NC(=O)C=CCC(C(C)C(O)C(OC)c3ccccc3)OC(=O)C(CC(C)C)OC(=O)C(C)CNC2=O)cc1Cl (stereo not shown) [Cryptophycin 9]
KB IC50 ([4]; Table 1): 15 ng/mL

COc1ccc(C[C@@H](NC(=O)/C=C/C[C@H](O)[C@H](C)[C@@H](O)[C@@H](OC)c2ccccc2)C(=O)NC[C@@H](C)C(=O)O)cc1Cl [Cryptophycin 10]
LoVo IC50 ([3]; Table 1): ≥ 100 ng/mL | KB IC50 ([4]; Table 1): ≥ 100 ng/mL

COc1ccc(C[C@@H](NC(=O)/C=C/C[C@@H]2O[C@@H](c3ccccc3)[C@H](O)[C@H]2C)C(=O)NC[C@@H](C)C(=O)O)cc1Cl [Cryptophycin 12]
KB IC50 ([4]; Table 1): ≥ 100 ng/mL | KB IC50 ([4]; Table 2): 18 ng/mL

COc1ccc(CC(NC(=O)C=CCC(O)C(C)C=Cc2ccccc2)C(=O)NCC(C)C(=O)O)cc1Cl (stereo not shown) [Cryptophycin 14]
KB IC50 ([4]; Table 1): 1.8 ng/mL

COc1ccc(C[C@H]2NC(=O)/C=C/C[C@@H]([C@H](C)[C@@H](O)[C@@H](O)c3ccccc3)OC(=O)[C@H](CC(C)C)OC(=O)[C@H](C)CNC2=O)cc1Cl [Cryptophycin 15]
SKOV3 IC50 [2]: 12 ng/mL

CC(C)C[C@@H]1OC(=O)[C@H](C)CNC(=O)[C@@H](Cc2ccc(O)c(Cl)c2)NC(=O)/C=C/C[C@@H]([C@H](C)[C@H]2O[C@@H]2c2ccccc2)OC1=O [Cryptophycin 16]
SKOV3 IC50 [2]: 0.64 ng/mL | KB IC50 ([4]; Table 2): 0.08 ng/mL | % Body Wt. Loss at Nadir [5, 14]: -1% | Cures [5, 14]: 0/5 | Log Kill [5, 14]: None | T/C [5, 14]: 89%

CC(C)CC1OC(=O)C(C)CNC(=O)C(Cc2ccc(O)c(Cl)c2)NC(=O)C=CCC(C(C)C=Cc2ccccc2)OC1=O (stereo not shown) [Cryptophycin 17]
SKOV3 IC50 [2]: 11 ng/mL | LoVo IC50 ([3]; Table 2): 5.9 ng/mL | KB IC50 ([4]; Table 2): 4.7 ng/mL

CCC(C)C1OC(=O)C(C)CNC(=O)C(Cc2ccc(OC)c(Cl)c2)NC(=O)C=CCC(C(C)C=Cc2ccccc2)OC1=O (stereo not shown) [Cryptophycin 18]
SKOV3 IC50 [2]: 23 ng/mL | LoVo IC50 ([3]; Table 2): 4.5 ng/mL

COc1ccc(CC2NC(=O)C=CCC(C(C)C=Cc3ccccc3)OC(=O)C(C(C)C)OC(=O)C(C)CNC2=O)cc1Cl (stereo not shown) [Cryptophycin 19]
SKOV3 IC50 [2]: 41 ng/mL | KB IC50 ([4]; Table 2): 9.8 ng/mL

COc1ccc(C[C@H]2NC(=O)/C=C/C[C@@H]([C@H](C)[C@H]3O[C@@H]3c3ccccc3)OC(=O)[C@H](CC(C)C)OC(=O)CCNC2=O)cc1Cl [Cryptophycin 21]
SKOV3 IC50 [2]: 0.029 ng/mL | LoVo IC50 ([3]; Table 2): 0.0003 ng/mL | % Body Wt. Loss at Nadir [5, 15]: -11% | Cures [5, 15]: 0/5 | Log Kill [5, 15]: None | T/C [5, 15]: 61% | dead [5, 15]: 1/5

COc1ccc(C[C@H]2NC(=O)/C=C/C[C@@H]([C@H](C)[C@H]3O[C@@H]3c3ccccc3)OC(=O)[C@H](CC(C)C)OC(=O)CCNC2=O)cc1 [Cryptophycin 24]
SKOV3 IC50 [2]: 0.3 ng/mL | LoVo IC50 ([3]; Table 2): 0.095 ng/mL | KB IC50 ([4]; Table 2): 0.12 ng/mL

COc1ccc(C[C@H]2NC(=O)CC(C[C@H](O)[C@H](C)/C=C/c3ccccc3)OC(=O)[C@H](CC(C)C)OC(=O)[C@H](C)CNC2=O)cc1Cl (stereo partly shown) [Cryptophycin 26]
SKOV3 IC50 [2]: 95 ng/mL | LoVo IC50 ([3]; Table 2): 9.8 ng/mL | KB IC50 ([4]; Table 2): 19 ng/mL

COc1ccc(C[C@H]2NC(=O)/C=C/C[C@@H](C/C=C/c3ccccc3)OC(=O)[C@H](CC(C)C)OC(=O)[C@H](C)CNC2=O)cc1Cl [Cryptophycin 28]
SKOV3 IC50 [2]: 6.1 ng/mL | LoVo IC50 ([3]; Table 2): 0.75 ng/mL | KB IC50 ([4]; Table 2): 1.5 ng/mL

COc1ccc(C[C@H]2NC(=O)/C=C/C[C@@H]([C@H](C)/C=C/c3ccccc3)OC(=O)[C@H](CC(C)C)OC(=O)CCNC2=O)cc1Cl [Cryptophycin 29]
SKOV3 IC50 [2]: 3.4 ng/mL | LoVo IC50 ([3]; Table 2): 0.49 ng/mL

COc1ccc(C[C@H]2NC(=O)C[C@H](O)C[C@@H]([C@H](C)/C=C/c3ccccc3)OC(=O)[C@H](CC(C)C)OC(=O)[C@H](C)CNC2=O)cc1Cl [Cryptophycin 30]
KB IC50 ([4]; Table 2): 11 ng/mL

COc1c(Cl)cc(CC2NC(=O)C=CCC(C(C)C3OC3c3ccccc3)OC(=O)C(CC(C)C)OC(=O)C(C)CNC2=O)cc1Cl (stereo not shown) [Cryptophycin 31]
SKOV3 IC50 [2]: 1.9 ng/mL | LoVo IC50 ([3]; Table 2): 0.062 ng/mL | KB IC50 ([4]; Table 2): 0.53 ng/mL

COc1ccc(CC2NC(=O)CCCC(C(C)C3OC3c3ccccc3)OC(=O)C(CC(C)C)OC(=O)C(C)CNC2=O)cc1Cl (stereo not shown) [Cryptophycin 35]
in vivo activity ([7]; the one trial that has been run to date): Good in vivo activity | SKOV3 IC50 [2]: 0.092 ng/mL | KB IC50 ([4]; Table 2): 0.055 ng/mL | % Body Wt. Loss at Nadir [5, 16]: -2% | Cures [5, 16]: 0/5 | Log Kill [5, 16]: 1.3 | T/C [5, 16]: 11%

COc1ccc(CC2NC(=O)C=CCC(CC3OC3c3ccccc3)OC(=O)C(CC(C)C)OC(=O)C(C)CNC2=O)cc1Cl (stereo not shown) [Cryptophycin 40]
LoVo IC50 ([3]; Table 2): 1.0 ng/mL | KB IC50 ([4]; Table 2): 9.0 ng/mL

CCCC1OC(=O)C(C)CNC(=O)C(Cc2ccc(OC)c(Cl)c2)NC(=O)C=CCC(C(C)C=Cc2ccccc2)OC1=O (stereo not shown) [Cryptophycin 49]
SKOV3 IC50 [2]: 1.1 ng/mL

CCC[C@@H]1OC(=O)[C@H](C)CNC(=O)[C@@H](Cc2ccc(OC)c(Cl)c2)NC(=O)/C=C/C[C@@H]([C@H](C)[C@H]2O[C@@H]2c2ccccc2)OC1=O [Cryptophycin 50]
SKOV3 IC50 [2]: 0.2 ng/mL

CC[C@H](C)[C@@H]1OC(=O)[C@H](C)CNC(=O)[C@@H](Cc2ccc(OC)c(Cl)c2)NC(=O)/C=C/C[C@@H]([C@H](C)[C@H]2O[C@@H]2c2ccccc2)OC1=O [Cryptophycin 54]
SKOV3 IC50 [2]: 2.2 ng/mL | LoVo IC50 ([3]; Table 2): 2.2 ng/mL | KB IC50 ([4]; Table 2): 0.80 ng/mL

COc1cc([C@@H]2c3cc4c(cc3[C@@H](O[C@@H]3O[C@@H]5CO[C@@H](C)O[C@H]5[C@H](O)[C@H]3O)[C@H]3COC(=O)[C@H]23)OCO4)cc(OC)c1O [VP-16, etoposide, reference compound]
Differential in Zone Units, Corbett Assay [1]: 350 Zone Units and 530 Zone Units
